10 compounds from patent US7943639B2, “Compounds” (Proximagen Limited, priority 2002, dated 2011) can be followed below.

Structures can show the parent of a compound that is named as a salt. Where two headings read alike, the source gives them in different places.

The nature of series [1]: Plasma drug concentration at steady state in the food intake study. The class given is in vivo. The settings on record: mouse, subcutaneous, 50 mg/kg/day, Ob/ob mice, single administration 50 mg/kg/d, read-out: Css, u. Here is the method:
The animals are weighed at the start of the study and randomized based on body weight. Alzet osmotic minipumps (Model 2001D; infusion rate 8 μl/h) are used and loaded essentially as recommended by the Alzet technical information manual (Alza Scientific Products, 1997; Theeuwes, F. and Yam, S. I. Ann. Biomed. Eng. 4(4). 343-353, 1976). Continuous subcutaneous infusion with 24 hours duration is used. The minipumps are either filled with different concentrations of test compounds dissolved in vehicle or with only vehicle solution and maintained in vehicle pre-warmed to 37° C. (approx. 1 h). The minipumps are implanted subcutaneously in the neck/back region under short acting anesthesia (metofane/enflurane). This surgical procedure lasts approximately 5 min. It takes about 3 h to reach steady state delivery of the compound.
The weight of the food pellets are measured at 5 p.m. and at 8 p.m. for two days before (baseline) and one day after the implantation of the osmotic minipumps. The weigh-in is performed with a computer assisted Mettler Toledo PR 5002 balance. Occasional spillage is corrected for. At the end of the study the animals are killed by neck dislocation and trunk blood sampled for later analysis of plasma drug concentrations.
The plasma sample proteins are precipitated with methanol, centrifuged and the supernatant is transferred to HPLC vials and injected into the liquid chromatography/mass spectrometric system. The mass spectrometer is set for electrospray positive ion mode and Multiple Reaction Monitoring. A linear regression analysis of the standards forced through the origin is used to calculate the concentrations of the unknown samples.

A further series deals with Ob/ob mice. Kind of series: In vivo assay of reduction of food intake. On the set-up: species or system mouse. The settings on record: infusion 50 mg/kg/d, measured at steady state. Here is the method:
(c) In Vivo Assay of Reduction of Food Intake
Obese (ob/ob) mouse is selected as the primary animal model for screening as this mutant mouse consumes high amounts of food resulting in a high signal to noise ratio. To further substantiate and compare efficacy data, the effect of the compounds on food consumption is also studied in wild type (C57BL/6J) mice. The amount of food consumed during 15 hours of infusion of compounds is recorded.
Male mice (obese C57BL/6JBom-Lep^ob and lean wild-type C57B1/6JBom; Bomholtsgaard, Denmark) 8-9 weeks with an average body weight of 50 g (obese) and 25 g (lean) are used in all the studies. The animals are housed singly in cages at 23±1° C., 40-60% humidity and have free access to water and standard laboratory chow. The 12/12-h light/dark cycle is set to lights off at 5 p.m. The animals are conditioned for at least one week before start of study.
The test compounds are dissolved in solvents suitable for each specific compound such as cyclodextrin, cyclodextrin/methane sulfonic acid, polyethylene glycol/methane sulfonic acid, saline. Fresh solutions are made for each study. Doses of 30, 50 and 100 mg kg^−1day^−1 are used. The purity of the test compounds is of analytical grade.
The animals are weighed at the start of the study and randomized based on body weight. Alzet osmotic minipumps (Model 2001D; infusion rate 8 μl/h) are used and loaded essentially as recommended by the Alzet technical information manual (Alza Scientific Products, 1997; Theeuwes, F. and Yam, S. I. Ann. Biomed. Eng. 4(4). 343-353, 1976). Continuous subcutaneous infusion with 24 hours duration is used. […]
The weight of the food pellets are measured at 5 p.m. and at 8 p.m. for two days before (baseline) and one day after the implantation of the osmotic minipumps. […]
Food consumption for 15 hours is measured for the three consecutive days and the percentage of basal level values is derived for each animal from the day before and after treatment. The values are expressed as mean±SD and ±SEM from eight animals per dose group. […]

A further series addresses T1, human 5-HT6 receptor (Homo sapiens, UniProt P50406).
T1 construct: expressed in transfected cells; host or cells: HEK-293 cells under G-418 selection; membranes were prepared from them
Kind of series: 5-HT6 binding assay ([3H]-LSD, SPA, membranes of transfected HEK293 cells).

Where [2] appears, read: In vitro binding at the human 5-HT6 receptor, [3H]-LSD as labeled ligand, read-out: Ki (nM) human 5-HT6.

T1 sequence (P50406 whole entry): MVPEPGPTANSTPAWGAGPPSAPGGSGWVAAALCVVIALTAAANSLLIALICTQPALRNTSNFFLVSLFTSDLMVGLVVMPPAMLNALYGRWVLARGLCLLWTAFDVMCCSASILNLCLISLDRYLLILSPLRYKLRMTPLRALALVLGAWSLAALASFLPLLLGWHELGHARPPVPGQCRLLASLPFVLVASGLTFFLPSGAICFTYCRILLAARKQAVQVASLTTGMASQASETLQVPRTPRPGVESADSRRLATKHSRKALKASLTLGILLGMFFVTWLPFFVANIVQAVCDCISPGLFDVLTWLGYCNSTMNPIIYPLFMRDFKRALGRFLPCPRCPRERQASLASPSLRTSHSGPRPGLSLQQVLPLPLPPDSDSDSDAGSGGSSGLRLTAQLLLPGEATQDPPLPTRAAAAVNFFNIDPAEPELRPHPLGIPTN

On to `Cl.O=S(=O)(c1ccccc1)c1ccc2nccc(N3CCNCC3)c2c1` [Example 1, 6-benzenesulfonyl-4-piperazin-1-yl-quinoline hydrochloride], for which, in series [1], the concentration at 24 h is 440 nM. In addition, the “% FI reduction” value with Ob/ob mice was 12%. The inhibition constant Ki (commonly a measure of affinity in units of concentration, obtained from inhibition or displacement) at human 5-HT6 receptor (setting [2]) worked out at 10 nM.
Regarding `NCCc1c[nH]c2ccc(O)cc12` [Example 5-HT, 5-hydroxytryptamine, reference compound], the Hill coefficient on human 5-HT6 receptor (inter assay variability over three experiments) is listed as 0.94 (SD 0.09).
Take `CC(C)(C)c1ccc(S(=O)(=O)c2ccc3nccc(N4CCNCC4)c3c2)cc1.Cl` [Example 11, 6-[(4-tert-Butylphenyl)sulfonyl]-4-piperazin-1-ylquinoline hydrochloride]: the concentration at 24 h in series [1] is 20 nM. Also, in the series with Ob/ob mice, the “% FI reduction” value was determined as 47.1%. Moreover, on human 5-HT6 receptor (setting [2]), the Ki amounted to 6.5 nM.
In the case of `Cc1ccc(C)c(S(=O)(=O)c2ccc3ccnc(N4CCNCC4)c3c2)c1` [Example 20, 7-(2,5-Dimethyl-benzenesulfonyl)-1-piperazin-1-yl-isoquinoline hydrochloride], the Ki at human 5-HT6 receptor (setting [2]) was 10.5 nM.
As for `Cl.O=S(=O)(Nc1ccc(O[C@@H]2CCNC2)c2ccccc12)c1ccc(Cl)cc1` [Example 40, 4-Chloro-N-{4-[(3R)-pyrrolidin-3-yloxy]-1-naphthyl}benzenesulfonamide hydrochloride], in series [1], the concentration at 24 h turned out to be 200 nM. Further, in the series with Ob/ob mice, the “% FI reduction” value is given as 44%. At human 5-HT6 receptor (setting [2]), the Ki stood at 7.5 nM.
Turning to `CN1CCN(c2nccc3sc(S(=O)(=O)Nc4ccccc4)cc23)CC1` [Example 43, 4-(4-Methylpiperazin-1-yl)-N-phenylthieno[3,2-c]pyridine-2-sulfonamide hydrochloride], the Ki at human 5-HT6 receptor (setting [2]) was 4.5 nM.
As to `O=S(=O)(NCCc1cccs1)c1cc2c(N3CCNCC3)nccc2s1` [Example 68, 4-Piperazin-1-yl-thieno[3,2-c]pyridine-2-sulfonic acid (2-thiophen-2-yl-ethyl)-amide hydrochloride], the Ki on human 5-HT6 receptor (setting [2]) was 13 nM.
On to `O=S(=O)(c1cc2c(N3CCCNCC3)nccc2s1)c1cccc2ccccc12` [Example 85, 4-(1,4-Diazepan-1-yl)-2-[1-naphthylsulfonyl)thieno[3,2-c]pyridine hydrochloride], for which the Ki on human 5-HT6 receptor (setting [2]) was 32 nM.
With `O=S(=O)(c1ccccc1)n1ccc2c(N3CCNCC3)nccc21` [Example 131, 1-(Phenylsulfonyl)-4-piperazin-1-yl-1H-pyrrolo[3,2-c]pyridine hydrochloride], the affinity at human 5-HT6 receptor corresponds to a Ki of 5 nM.
With `CN1C[C@@H](NS(=O)(=O)N(C)C)C[C@@H]2c3cccc4c3c(cn4C)C[C@H]21` [mesulergide, reference compound], the Ki at human 5-HT6 receptor (3 nM [3H] LSD, 5-HT: over all average against two different membrane preparations, read-out: Ki value, inhibition of [3H] LSD binding (reference compounds, rank order of potency)) turned out to be 1970 nM.
